Laboratory results as given in patent US20250147039A1, “Compounds for complexation of rare earth elements and/or s-, p-, d- block metals, their coordination compounds, peptide conjugates, method of their preparation and use thereof” (USTAV ORGANICKE CHEMIE A BIOCHEMIE AV CR V.V.I., priority 2021, published 2025).

Key:
[1] = Formation of 1,5-cz-[M(Lig)] from Lig and M^III ions (metal dependent click-zip) (Charts 4, 5); format: physicochemical; settings: MOPS/NaOH buffer pH 7.0, TD728, TD827 in 50% i-PrOH; for conversion to 1,5-cz-[M(Lig)], Y^III: TD714 sum of two diastereoisomers
[2] = Formation of 1,5-cz-[Ln(Lig)] from Lig and Ln^III ions (metal dependent click-zip), MOPS/NaOH buffer pH 7.0, analytical HPLC (Charts 1, 2); settings: MOPS/NaOH buffer pH 7.0

conversion to 1,5-cz-[M(Lig)], Sc^III ([1]; 1 week at 80° C.) [%]	conversion to 1,5-cz-[M(Lig)], Y^III ([1]; 1 week at 80° C.) [%]	conversion to 1,5-cz-[M(Lig)], Sc^III ([1]; 1 hour at 80° C.) [%]	conversion to 1,5-cz-[M(Lig)], Y^III ([1]; 1 hour at 80° C.) [%]	conversion to 1,5-cz-[Ln(Lig)], Ce^III ([2]; after 1 week at 80° C.) [%]	conversion to 1,5-cz-[Ln(Lig)], Ce^III ([2]; after 1 hour at 80° C.) [%]	conversion to 1,5-cz-[Ln(Lig)], Dy^III ([2]; after 1 week at 80° C.) [%]	conversion to 1,5-cz-[Ln(Lig)], Dy^III ([2]; after 1 hour at 80° C.) [%]	conversion to 1,5-cz-[Ln(Lig)], Er^III ([2]; after 1 week at 80° C.) [%]	conversion to 1,5-cz-[Ln(Lig)], Er^III ([2]; after 1 hour at 80° C.) [%]	conversion to 1,5-cz-[Ln(Lig)], Eu^III ([2]; after 1 week at 80° C.) [%]	conversion to 1,5-cz-[Ln(Lig)], Eu^III ([2]; after 1 hour at 80° C.) [%]	conversion to 1,5-cz-[Ln(Lig)], Gd^III ([2]; after 1 week at 80° C.) [%]	conversion to 1,5-cz-[Ln(Lig)], Gd^III ([2]; after 1 hour at 80° C.) [%]	conversion to 1,5-cz-[Ln(Lig)], Ho^III ([2]; after 1 week at 80° C.) [%]	conversion to 1,5-cz-[Ln(Lig)], Ho^III ([2]; after 1 hour at 80° C.) [%]	conversion to 1,5-cz-[Ln(Lig)], La^III ([2]; after 1 week at 80° C.) [%]	conversion to 1,5-cz-[Ln(Lig)], La^III ([2]; after 1 hour at 80° C.) [%]	conversion to 1,5-cz-[Ln(Lig)], Lu^III ([2]; after 1 week at 80° C.) [%]	conversion to 1,5-cz-[Ln(Lig)], Lu^III ([2]; after 1 hour at 80° C.) [%]	Structure (SMILES)	further results
5	74	0	1	4	0	65	1	88	2	36	0	40	0	77	2	5	0	97	5	[N-]=[N+]=NCc1cccc(CN2CCN(CC(=O)O)CCN(Cc3cccc(C#CC4CC4)n3)CCN(CC(=O)O)CC2)n1 [TD943]	conversion to 1,5-cz-[Ln(Lig)], Nd^III ([2]; after 1 week at 80° C.): 16%; conversion to 1,5-cz-[Ln(Lig)], Nd^III ([2]; after 1 hour at 80° C.): 0%; conversion to 1,5-cz-[Ln(Lig)], Pr^III ([2]; after 1 week at 80° C.): 10%; conversion to 1,5-cz-[Ln(Lig)], Pr^III ([2]; after 1 hour at 80° C.): 0%; conversion to 1,5-cz-[Ln(Lig)], Sm^III ([2]; after 1 week at 80° C.): 29%; conversion to 1,5-cz-[Ln(Lig)], Sm^III ([2]; after 1 hour at 80° C.): 0%; conversion to 1,5-cz-[Ln(Lig)], Tb^III ([2]; after 1 week at 80° C.): 56%; conversion to 1,5-cz-[Ln(Lig)], Tb^III ([2]; after 1 hour at 80° C.): 1%; conversion to 1,5-cz-[Ln(Lig)], Tm^III ([2]; after 1 week at 80° C.): 94%; conversion to 1,5-cz-[Ln(Lig)], Tm^III ([2]; after 1 hour at 80° C.): 3%; conversion to 1,5-cz-[Ln(Lig)], Yb^III ([2]; after 1 week at 80° C.): 97%; conversion to 1,5-cz-[Ln(Lig)], Yb^III ([2]; after 1 hour at 80° C.): 3%
8	91	1	20	1	1	86	15	93	33	73	4	74	5	90	22	5	0	95	54	C#Cc1cccc(CN2CCN(CC(=O)O)CCN(Cc3cc(C(F)(F)F)cc(CN=[N+]=[N-])n3)CCN(CC(=O)O)CC2)n1 [TD1063]	conversion to 1,5-cz-[Ln(Lig)], Nd^III ([2]; after 1 week at 80° C.): 52%; conversion to 1,5-cz-[Ln(Lig)], Nd^III ([2]; after 1 hour at 80° C.): 2%; conversion to 1,5-cz-[Ln(Lig)], Pr^III ([2]; after 1 week at 80° C.): 35%; conversion to 1,5-cz-[Ln(Lig)], Pr^III ([2]; after 1 hour at 80° C.): 1%; conversion to 1,5-cz-[Ln(Lig)], Sm^III ([2]; after 1 week at 80° C.): 57%; conversion to 1,5-cz-[Ln(Lig)], Sm^III ([2]; after 1 hour at 80° C.): 3%; conversion to 1,5-cz-[Ln(Lig)], Tb^III ([2]; after 1 week at 80° C.): 83%; conversion to 1,5-cz-[Ln(Lig)], Tb^III ([2]; after 1 hour at 80° C.): 10%; conversion to 1,5-cz-[Ln(Lig)], Tm^III ([2]; after 1 week at 80° C.): 93%; conversion to 1,5-cz-[Ln(Lig)], Tm^III ([2]; after 1 hour at 80° C.): 45%; conversion to 1,5-cz-[Ln(Lig)], Yb^III ([2]; after 1 week at 80° C.): 95%; conversion to 1,5-cz-[Ln(Lig)], Yb^III ([2]; after 1 hour at 80° C.): 53%
